Data published in patent US6762181B1, “Aminomethylpyrrolidine derivatives having aromatic substituents” (Daiichi Pharmaceutical Co., Ltd., priority 1999, dated 2004).
≈ marks a conversion by molar mass, not a printed value. Like-named read-outs stand apart in the source and are kept apart here.

Assays:
Assay in all cases: Antibacterial activity (MIC), Japan Society of Chemotherapy standard method
Type in all cases: cell-based
Ps. aeruginosa 32121 = tested on: Ps. aeruginosa 32121
Procedure: (§1) Antibacterial activities of the compounds of the invention were measured in accordance with the standard method specified by the Japan Society of Chemotherapy, with the results shown in the following table as MIC values (μg/ml). In this connection, MIC values of levofloxacin (LVFX), ciprofloxacin (CPFX) and 5-amino-7-[3-(R)-[1-(S)-aminoethyl]pyrrolidin-1-yl]-6-fluoro-1-[2-(S)-fluoro-1-(R)-cyclopropyl]-8-methyl-1,4-dihydro-4-oxoquinoline-3-carboxylic acid (control drug 1) described in WO 9623782 are also shown for the sake of comparison with the MIC values of the compounds of the invention.

X. maltophilia IID 1275 = tested on: X. maltophilia IID 1275
Procedure: as §1

K. pneumoniae TYPE 1 = tested on: K. pneumoniae TYPE 1
Procedure: as §1

S. aureus FDA 209P = tested on: S. aureus FDA 209P
Procedure: as §1

S. epidermidis 56500 = tested on: S. epidermidis 56500
Procedure: as §1

S. aureus 870307 = tested on: S. aureus 870307
Procedure: as §1

S. flexneri 2A 5503 = tested on: S. flexneri 2A 5503
Procedure: as §1

Ps. aeruginosa 32104 = tested on: Ps. aeruginosa 32104
Procedure: as §1

E. faecalis ATCC 19433 = tested on: E. faecalis ATCC 19433
Procedure: as §1

Str. pneumoniae J24 = tested on: Str. pneumoniae J24
Procedure: as §1

Str. pyrogenes G-36 = tested on: Str. pyrogenes G-36
Procedure: as §1

E. coli NIHJ = tested on: E. coli NIHJ
Procedure: as §1

Ser. marcescens 10100 = tested on: Ser. marcescens 10100
Procedure: as §1

Pr. Vulgaris O8601 = tested on: Pr. Vulgaris O8601
Procedure: as §1

[1] = Pseudomonas aeruginosa, 32121, Ps. aeruginosa 32121, read-out: MIC
[2] = Stenotrophomonas maltophilia, IID1275, X. maltophilia IID 1275, read-out: MIC
[3] = Klebsiella pneumoniae, TYPE1, K. pneumoniae TYPE 1, read-out: MIC
[4] = Staphylococcus aureus, FDA209P, read-out: MIC
[5] = Staphylococcus epidermidis, read-out: MIC
[6] = Pseudomonas aeruginosa, 32104, Ps. aeruginosa 32104, read-out: MIC
[7] = Streptococcus pneumoniae, J24, Str. pneumoniae J24, read-out: MIC
[8] = Serratia marcescens, 10100, Ser. marcescens 10100, read-out: MIC
[9] = Shigella flexneri, 2A5503, S. flexneri 2A 5503, read-out: MIC
[10] = Escherichia coli, read-out: MIC

Row | SMILES | MIC (Ps. aeruginosa 32121; Ps. aeruginosa 32121) [µg/mL] | MIC (X. maltophilia IID 1275; X. maltophilia IID 1275) [µg/mL] | MIC (K. pneumoniae TYPE 1; K. pneumoniae TYPE 1) [µg/mL] | MIC (S. aureus FDA 209P) | MIC (S. epidermidis 56500) | MIC (S. aureus 870307; S. aureus 870307) | MIC (S. flexneri 2A 5503; S. flexneri 2A 5503) | MIC (Ps. aeruginosa 32104; Ps. aeruginosa 32104) [µg/mL] | MIC (E. faecalis ATCC 19433; E. faecalis ATCC 19433) [µg/mL] | MIC (Str. pneumoniae J24; Str. pneumoniae J24) | MIC (Str. pyrogenes G-36) | MIC (E. coli NIHJ) | MIC (Ser. marcescens 10100; Ser. marcescens 10100) [µg/mL] | MIC (Pr. Vulgaris O8601) [µg/mL] | MIC (S. aureus FDA 209P; [4]) [ng/mL] | MIC (S. epidermidis 56500; [5]) [ng/mL] | MIC (Ps. aeruginosa 32104; [6]) [µg/mL] | MIC (Str. pneumoniae J24; [7]) [ng/mL] | MIC (Ser. marcescens 10100; [8]) [µg/mL] | MIC (S. flexneri 2A 5503; [9]) [ng/mL] | also measured
1 | Nc1c(F)c(N2CC[C@@H](C(N)c3ccc(F)cc3F)C2)c(F)c2c1c(=O)c(C(=O)O)cn2[C@@H]1C[C@@H]1F (stereo partly drawn) [Example 10, 5-Amino-7-[3-(R)-(1Amino-1-(2,4-Difluoro) Phenylmethyl)-1-Pyrrolidinyl]-6,8-Difluoro-1-[2-(S)-Fluoro-1-(R)-Cyclopropyl]-1,4-Dihydro-4-Oxoquinoline-3-Carboxylic Acid] | 0.1 (≈ 0.197 µM) | 0.05 (≈ 0.0983 µM) | 0.013 (≈ 0.0256 µM) | ≦0.003 μg/ml | ≦0.003 μg/ml | 0.006 µg/mL (≈ 0.0118 µM) | ≦0.003 μg/ml | 0.2 (≈ 0.393 µM) | 0.025 (≈ 0.0492 µM) | ≦0.003 μg/ml | ≦0.003 μg/ml | ≦0.003 μg/ml | 0.1 (≈ 0.197 µM) | 0.1 (≈ 0.197 µM) |  |  |  |  |  |  | 
2 | Nc1c(F)c(N2CC[C@@H](C(N)c3ccco3)C2)c(F)c2c1c(=O)c(C(=O)O)cn2[C@@H]1C[C@@H]1F (stereo partly drawn) [Example 11, 5-Amino-7-{3-(R)-[1-amino-1-(2-furyl)methyl]-1-pyrrolidinyl}-6,8-difluoro-1-[2-(S)-fluoro-1-(R)-cyclopropyl]-1,4-dihydro-4-oxoquinoline-3-carboxylic acid] |  |  |  |  |  | 0.025 µg/mL (≈ 0.0541 µM) | ≦0.003 μg/ml |  | 0.025 (≈ 0.0541 µM) |  | 0.013 µg/mL (≈ 0.0281 µM) | ≦0.003 μg/ml |  | 0.05 (≈ 0.108 µM) | ≤ 3 | ≤ 3 | 0.2 (≈ 0.432 µM) | 6 (≈ 0.013 µM) | 0.05 (≈ 0.108 µM) |  | MIC (Ps. aeruginosa 32121; [1]): 0.05 µg/mL (≈ 0.108 µM); MIC (X. maltophilia IID 1275; [2]): 0.05 µg/mL (≈ 0.108 µM); MIC (K. pneumoniae TYPE 1; [3]): 0.025 µg/mL (≈ 0.0541 µM)
3 | Nc1c(F)c(N2CC[C@@H](C(N)c3ccccn3)C2)c(F)c2c1c(=O)c(C(=O)O)cn2[C@@H]1C[C@@H]1F (stereo partly drawn) [Example 16] | 0.05 (≈ 0.106 µM) | 0.1 (≈ 0.211 µM) | 0.025 (≈ 0.0528 µM) | ≦0.003 μg/ml | ≦0.003 μg/ml | 0.006 µg/mL (≈ 0.0127 µM) | ≦0.003 μg/ml | 0.2 (≈ 0.422 µM) | 0.013 (≈ 0.0275 µM) | ≦0.003 μg/ml | ≦0.003 μg/ml | ≦0.003 μg/ml | 0.1 (≈ 0.211 µM) | 0.025 (≈ 0.0528 µM) |  |  |  |  |  |  | 
4 | Nc1c(F)c(N2CC[C@@H](C(N)c3ccccc3)C2)c(F)c2c1c(=O)c(C(=O)O)cn2[C@@H]1C[C@@H]1F (single isomer, unassigned) [Example 1] | 0.1 (≈ 0.212 µM) | 0.1 (≈ 0.212 µM) | 0.05 (≈ 0.106 µM) |  |  | 0.025 µg/mL (≈ 0.0529 µM) |  |  | 0.05 (≈ 0.106 µM) |  | 0.013 µg/mL (≈ 0.0275 µM) |  |  | 0.1 (≈ 0.212 µM) | ≤ 3 | ≤ 3 | 0.2 (≈ 0.423 µM) | 6 (≈ 0.0127 µM) | 0.1 (≈ 0.212 µM) | 6 (≈ 0.0127 µM) | MIC (E. coli NIHJ; [10]): ≤ 3 ng/mL
5 | Nc1c(F)c(N2CC[C@@H](C(N)c3ccco3)C2)c(F)c2c1c(=O)c(C(=O)O)cn2[C@@H]1C[C@@H]1F (stereo partly drawn) [Example 12, 5-Amino-7-{3-(R)-[1-amino-1-(2-furyl)methyl]-1-pyrrolidinyl}-6,8-difluoro-1-[2-(S)-fluoro-1-(R)-cyclopropyl]-1,4-dihydro-4-oxoquinoline-3-carboxylic acid] | 0.05 (≈ 0.108 µM) | 0.05 (≈ 0.108 µM) | 0.025 (≈ 0.0541 µM) | ≦0.003 μg/ml | ≦0.003 μg/ml | ≦0.003 μg/ml |  | 0.1 (≈ 0.216 µM) | 0.006 (≈ 0.013 µM) | ≦0.003 μg/ml | ≦0.003 μg/ml |  | 0.025 (≈ 0.0541 µM) | 0.013 (≈ 0.0281 µM) |  |  |  |  |  | ≤ 3 | MIC (E. coli NIHJ; [10]): ≤ 3 ng/mL
6 | Cc1c(N2CC[C@@H](C(N)c3cccnc3)C2)c(F)c(N)c2c(=O)c(C(=O)O)cn([C@@H]3C[C@@H]3F)c12 (stereo partly drawn) [Example 20, 5-Amino-7-(3-(R)-[1-amino-1-(3-pyridyl)methyl]-1-pyrrolidinyl)-6-fluoro-1-[(1R,2S)-2-fluorocyclopropyl]-1,4-dihydro-8-methyl-4-oxoquinoline-3-carboxylic acid] |  |  |  |  |  |  |  |  |  |  |  |  |  |  | ≤ 3 | ≤ 3 | 0.2 (≈ 0.426 µM) | ≤ 3 | 0.1 (≈ 0.213 µM) | 6 (≈ 0.0128 µM) | MIC (Ps. aeruginosa 32121; [1]): 0.05 µg/mL (≈ 0.106 µM); MIC (X. maltophilia IID 1275; [2]): 0.2 µg/mL (≈ 0.426 µM); MIC (K. pneumoniae TYPE 1; [3]): 0.05 µg/mL (≈ 0.106 µM); MIC (S. aureus 870307; Staphylococcus aureus, 870307, S. aureus 870307, read-out: MIC): 0.05 µg/mL (≈ 0.106 µM); MIC (E. faecalis ATCC 19433; Enterococcus faecalis, ATCC19433, E. faecalis ATCC 19433, read-out: MIC): 0.025 µg/mL (≈ 0.0532 µM); MIC (Str. pyrogenes G-36; read-out: MIC): ≤ 0.003 µg/mL; MIC (E. coli NIHJ; [10]): 6 ng/mL (≈ 0.0128 µM); MIC (Pr. Vulgaris O8601; Proteus vulgaris, read-out: MIC): 0.025 µg/mL (≈ 0.0532 µM)
